The conditions of data set [1]: 10 to 40 mg over a 12 week period; 120 fibromyalgia patients; cited from earlier work.
How the values of data set [2] were obtained: In the initial tests as reported in PCT/IB2010/051373 tablets were administered three times daily.
Four selected outcome variables were used in this preliminary analysis: Global improvement (GI), Tinnitus Handicap Inventory (THI) and Tinnitus Impairment Questionnaire (TBF 12) questionnaires and Minimum Masking Levels (MML). The changes on the outcome variables were obtained by subtracting week 12's scores from the screening scores. The presence of a negative result means a decrease on values.
In Table 2 the changes on outcome variables are listed by Global Improvement (GI) classification, as follows: GI 1=much better; 2=better; 3=slightly better; 4=no change; 5=slightly worse; 6=worse; 7=much worse; THI: Tinnitus Handicap Inventory, TBF 12: Tinnitus Impairment Questionnaire; MML: minimal masking levels, measured in dB HL (Hearing Level).
Four different criteria were established to determine whether a subject responded or not to treatment (see Table 3).

This is an account of results in patent publication US20130230586A1, “Treatment of Tinnitus and Related Auditory Dysfunctions” (LINK RESEARCH & GRANTS CORPORATION, priority 2010, published 2013).

Take `CN(C)CCC=C1c2ccccc2C=Cc2ccccc21` [Cyclobenzaprine]: in data set [1], the “Quality of sleep and pain score” value is listed as “significantly improved”; the “Total number of tender points and muscle tightness” value was “reduction”. Further, in data set [2] (Criteria 2: Criteria 1 + decrease on THI), the Responders n is on record as 11. The Tolerability entry in data set [2] (common side effects like constipation and dry mouth may be experienced) is listed as “tolerated well by most subjects”. In data set [2] (of 15 subjects, FIG. 1), the “Number of subjects Better or Much Better on GI” value was found to be 8 subjects and the “Number of subjects Slightly Better, Better or Much Better on GI” value is recorded as 11 subjects. Besides, the “Number of subjects with changes on tinnitus pitch” value in data set [2] (out of 15 subjects) is 5 subjects. The “Remark in place of MML change (intermittent tinnitus)” value in data set [2] (subject 3, MML not possible to measure) was “change on intensity and less episodes”. Further, in data set [2] (subject 6), the “Trial suspension due to side effects” value is reported as “Trial suspended because of side effects”. Moreover, the “Course of Minimum Masking Levels (MML) during the tests” value in data set [2] (subjects 4, 8, 9, 10 and 11, FIGS. 2-6) is reported as “progressive reduction”. In data set [2] (tested subjects), the “Effect on tinnitus severity and tinnitus loudness” value is “positive effect”; the Safety of administration entry is “safe to administer”.
